The nature of data set [1]: Pharmacokinetics of the composition after oral administration. It counts as in vivo. The settings on record: rats, serum; for AUC(0-inf) / Cmax: rat. As to the method:
Mangiferin is suspended in 1% carboxymethyl cellulose sodium solution, the concentration of mangiferin is 25 mg/mL (Sample A).
Berberine is suspended in 1% carboxymethyl cellulose sodium solution, the concentration of berberine is 25 mg/mL (Sample B). The composition which is composed of mangiferin and berberine in the ratio of 1:4 is suspended in 1% carboxymethyl cellulose sodium solution, the concentration of the composition is 50 mg/mL (Sample C).
All rats were fasted for 16 hours and drunk water freely. The rats are oral administrated respectively sample A (40 mg/kg), sample B (160 mg/kg) and sample C (200 mg/kg). From the rats, 0.4 ml blood samples were taken respectively at the time of 5 minutes before oral administrated and 0 h, 1 h, 2 h, 3 h, 4 h, 5 h, 6 h, 8 h, 10 h, 12 h, 15 h, and 24 h after oral administrated. These blood samples were put into centrifuge tube containing heparin, then were centrifuged for 10 minutes, the serum is obtained.
Serum samples are taken accurately 100 μL into centrifuge tubes, then 400 μL acetonitrile-acetic acid (9:1) is added into centrifuge tubes. The samples are whorled for 1.5 minutes, and then the samples are centrifuged 3000 r/min for 10 minutes. The supernatant was put into clear tube, dried by nitrogen, 100 μL mobile phase were put into the remnants, whorled for 1.5 minutes, then centrifuged 3000 r/min for 10 minutes. The Supernatant was put into sample bottle. All the samples are determined by HPLC. Injection volume is 20 μL.
4.1 Apparatus: Angilent 1100 HPLC (American Agilent Co.): include G1312A dual pump and G1313A Auto-Sampler.
Chromatographic column: discover ODS column (250 mm×6 mm, 5 μm);
The mobile phase: methanol-0.1% H3PO4 water.
Velocity of flow: 1.0 ml/min.
Detection Wavelength: 264 nm.

The target of data set [2] is T1, aldose reductase (AR) (Rattus norvegicus, UniProt P07943).
T1 construct: from tissue; host or cells: lens of GK (Goto-Kakizaki) and Wistar rats
Kind of data set: Activity of aldose reductase (AR) of lens in GK rats. In kind it is in vivo, Goto-Kakizaki rats (GK). The settings on record: oral daily 12 weeks, specific activity, in U/mg protein; for AR activity of lens NADH (0.1 mmol/L): NADH 0.1 mmol/L system; for AR activity of lens NADPH (0.1 mmol/L): NADPH 0.1 mmol/L system. As to the method:
GK rats control group (n=10); mangiferin groups (10, 30, 200 mg/kg, each group 10 rats); berberine groups (10, 20, 150 mg/kg, each group 10 rats); composition group 1[[mangiferin (10 mg/kg)+berberine (10 mg/kg)], 10 rats]; composition group 2[[mangiferin (200 mg/kg)+berberine (150 mg/kg)], 10 rats]. Wistar rats are normal control group (10 rats). GK rats control group and Wistar rats group were given saline. The other groups were given test drugs. Test samples were administrated orally at the same time every day for 12 weeks. […] At the End of the experiment, the left side lens of rats was taken, then these lenses were added into glycerol and put into refrigerator (−80° C.□) to preserve to determine AR activity. The determination method of AR activity refer to Maragoudakis's method and change slightly, that is: the activity of enzyme is indicated by the record of the absorbance of NADPH in 340 nm decline IOU. […] The second reaction system is 0.1 mmol/L NADH instead of NADPH, the rest of the reagent is same as one of the first response system. The activity of enzyme and the protein content in tissue homogenate are determined at the same time. a unit enzyme activity is indicated by the quantity of the enzyme that produce 1 μmol NADP^+ (or NDA^+) in one minute. […] The results have been calculated as mean±SD ( x±SD) and the comparisons of the data have been done by t-test. There are ten rats in every group. GK rats control group and wistar rats group were given saline. The other groups were given test drugs. Test samples were administrated orally at the same time every day for 12 weeks. The measurements are as same as the above experiment.

Data set [3] deals with Superoxidedismutase (SOD). The data set can be described thus: Superoxidedismutase (SOD) in kidney tissue homogenate of GK rats. It counts as in vivo, Goto-Kakizaki rats (GK). The conditions noted are these: oral daily 12 weeks. As to the method: GK rats control group (n=10); mangiferin groups (10, 30, 200 mg/kg, each group 10 rats); berberine groups (10, 20, 150 mg/kg, each group 10 rats); composition group 1[[mangiferin (10 mg/kg)+berberine (10 mg/kg)], 10 rats]; composition group 2[[mangiferin (200 mg/kg)+berberine (150 mg/kg)], 10 rats]. Wistar rats are normal control group (10 rats). GK rats control group and Wistar rats group were given saline. The other groups were given test drugs. Test samples were administrated orally at the same time every day for 12 weeks. 3.3.1 Preparation of tissue homogenate: Rats were killed by femoral artery bloodletting after administration of the rats for 12-weeks. Kidney tissue of the rats were taken, the blood of kidney tissue were washed with cooling saline (4° C.), then the remnant water was absorbed with filter paper, the kidney tissue was weighed. Per gram kidney tissue was added into 10 ml saline, which was put in homogenized machine (10,000 r/min, 10 seconds, 3rd), 10% tissue homogenate was prepared, the tissue homogenate was centrifuged (4000 r/min) for 10 minutes to get supernatant, the supernatant was saved in −20° C. for determination. […] SOD is determined by Xanthine Oxidase calorimetric analysis, the test box was bought from Nanjing Jiancheng Bioengineering Research Institute. […] The results have been calculated as mean±SD ( x±SD) and the comparisons of the data have been done by t-test. There are ten rats in every group. GK rats control group and wistar rats group were given saline. The other groups were given test drugs. Test samples were administrated orally at the same time every day for 12 weeks. The measurements are as same as the above experiment.

Where two headings read alike, the source gives them in different places.

A word on the Cmax: it is the maximum level reached in the sampled fluid or tissue. In the case of `COc1ccc2cc3[n+](cc2c1OC)CCc1cc2c(cc1-3)OCO2` [Berberine], the AUC(0-inf) in data set [1] (sample B 160 mg/kg or sample C (1:4) 200 mg/kg, read-out: AUC0-∞ of berberine) worked out at 3440 ± 250 µg·h/mL. In data set [1] (sample B 160 mg/kg or sample C (1:4) 200 mg/kg, read-out: Cmax of berberine), the maximum concentration (Cmax) was 54.1 ± 2.6 µg/mL. Further, the T1/2β of berberine in data set [1] (sample B 160 mg/kg or sample C (1:4) 200 mg/kg) stood at 3.5 ± 0.3 h. The “AR activity of lens NADH (0.1 mmol/L)” value in data set [2] (10 mg/kg) amounted to 2.98 ± 0.60; in data set [2] (20 mg/kg) it was 1.32 ± 0.37; in data set [2] (150 mg/kg), 0.94 ± 0.45. Also, the “AR activity of lens NADPH (0.1 mmol/L)” value is 5.64 ± 2.19 in data set [2] (10 mg/kg), 2.28 ± 0.51 in data set [2] (20 mg/kg) and 1.87 ± 0.51 in data set [2] (150 mg/kg). In addition, the “Measurements about oxidation SOD” value in data set [3] (10 mg/kg) came to 131.56 ± 23.49 U/mg pro; in data set [3] (20 mg/kg) it was 170.04 ± 13.49 U/mg pro; in data set [3] (150 mg/kg), 195.10 ± 13.71 U/mg pro.

Consider `O=c1c2cc(O)c(O)cc2oc2cc(O)c([C@@H]3O[C@H](CO)[C@@H](O)[C@H](O)[C@H]3O)c(O)c12` [Mangiferin], for which, in data set [1] (sample A 40 mg/kg or sample C (1:4) 200 mg/kg, read-out: AUC0-∞ of mangiferin), the AUC(0-inf) amounted to 1200 ± 391 µg·h/mL. Also, in data set [1] (sample A 40 mg/kg or sample C (1:4) 200 mg/kg, read-out: Cmax of mangiferin), the Cmax turned out to be 18.6 ± 1.5 µg/mL. This molecule also returned a T1/2β of mangiferin in data set [1] (sample A 40 mg/kg or sample C (1:4) 200 mg/kg) of 4.3 ± 0.4 h. The “AR activity of lens NADH (0.1 mmol/L)” value in data set [2] (10 mg/kg) was determined as 2.89 ± 0.69; in data set [2] (30 mg/kg), 1.64 ± 0.42; in data set [2] (200 mg/kg), 0.94 ± 0.45. Also, the “AR activity of lens NADPH (0.1 mmol/L)” value in data set [2] (10 mg/kg) turned out to be 5.36 ± 2.17; in data set [2] (30 mg/kg) it was 3.05 ± 0.59; in data set [2] (200 mg/kg) it was 1.87 ± 0.51. The results for the “Measurements about oxidation SOD” value in data set [3] (10 mg/kg), in data set [3] (30 mg/kg) and in data set [3] (200 mg/kg) were 130.74 ± 23.47 U/mg pro, 168.23 ± 13.46 U/mg pro and 194.15 ± 13.55 U/mg pro, respectively.

Values taken from patent US7867979B2, “Drug composition for treating 2 type diabetes and diabetic chronicity complications” (Hainan Deze Drug Research Co., Ltd., priority 2006, dated 2011).
